Common to all, as to assay type: biochemical
The target of one assay is PKA (Homo sapiens, UniProt P17612). In words: PKA inhibition assay (standard coupled enzyme assay). Conditions: 50 μM ATP, 80 μM Kemptide, 18 nM PKA, 30° C. A digest of the protocol: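 Coupled PK/LDH assay (NADH read) with 18 nM PKA, 50 μM ATP and 80 μM Kemptide in 100 mM HEPES 7.5, 10 mM MgCl2, 3% DMSO at 30 °C. Compound dilutions (typically from 5 μM final) preincubated 10 min before ATP start; initial rates over 15 min gave IC50 and Ki by non-linear regression.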

For the next assay, the target named is AKT-3 (Homo sapiens, UniProt Q9Y243). In words: AKT-3 inhibition assay (standard coupled enzyme assay). Conditions: 170 μM ATP, 200 μM peptide, 45 nM AKT, 30° C.
The next assay addresses T1, PDK-1 (Homo sapiens, UniProt O15530).
T1 sequence (O15530 1-556): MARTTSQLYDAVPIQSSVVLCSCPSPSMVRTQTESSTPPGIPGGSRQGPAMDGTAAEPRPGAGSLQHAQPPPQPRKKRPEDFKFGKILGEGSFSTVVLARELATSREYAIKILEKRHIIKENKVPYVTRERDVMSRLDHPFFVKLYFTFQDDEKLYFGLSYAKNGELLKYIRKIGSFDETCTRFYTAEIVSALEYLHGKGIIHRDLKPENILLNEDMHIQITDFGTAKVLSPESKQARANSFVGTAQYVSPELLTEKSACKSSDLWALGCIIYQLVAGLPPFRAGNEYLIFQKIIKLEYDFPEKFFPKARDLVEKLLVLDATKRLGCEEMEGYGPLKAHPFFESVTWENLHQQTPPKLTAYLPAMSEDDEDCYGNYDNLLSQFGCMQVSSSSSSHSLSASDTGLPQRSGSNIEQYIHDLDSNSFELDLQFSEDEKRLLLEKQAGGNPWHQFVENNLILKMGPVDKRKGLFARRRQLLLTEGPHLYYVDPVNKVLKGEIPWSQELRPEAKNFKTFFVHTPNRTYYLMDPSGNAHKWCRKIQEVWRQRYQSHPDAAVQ
In words: PDK-1 inhibition assay (radioactive-phosphate incorporation). Conditions: 40 μM ATP, 65 μM PDKtide, 25 nM PDK-1, 30° C.

AKT-3, sequence (Q9Y243 whole entry): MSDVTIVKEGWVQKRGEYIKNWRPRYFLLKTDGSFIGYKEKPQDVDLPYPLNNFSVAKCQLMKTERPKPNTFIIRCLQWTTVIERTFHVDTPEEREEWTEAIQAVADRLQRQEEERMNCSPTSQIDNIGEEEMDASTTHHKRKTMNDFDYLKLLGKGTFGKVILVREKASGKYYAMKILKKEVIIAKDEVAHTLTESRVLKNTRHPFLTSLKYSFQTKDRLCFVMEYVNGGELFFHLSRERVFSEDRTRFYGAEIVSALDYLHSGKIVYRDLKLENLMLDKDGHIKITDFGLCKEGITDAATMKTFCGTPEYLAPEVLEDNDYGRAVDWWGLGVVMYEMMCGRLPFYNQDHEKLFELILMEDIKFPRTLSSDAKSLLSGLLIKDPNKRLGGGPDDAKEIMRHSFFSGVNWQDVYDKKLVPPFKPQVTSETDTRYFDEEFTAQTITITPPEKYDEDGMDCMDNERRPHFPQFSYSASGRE

As a reminder, the Ki is the dissociation constant of the complex between target and ligand, obtained from inhibition or displacement. Consider `NCCC(C(=O)Nc1ccc2[nH]ncc2c1)c1cc(C(F)(F)F)cc(C(F)(F)F)c1` (stereo not drawn) [Compound I-105], for which the Ki was below 1 µM on PKA, below 1 µM at AKT-3 and above 3 µM at PDK-1.

Take `Cc1cccc(C(CCN)C(=O)Nc2ccc3[nH]nc(C)c3c2)c1` (stereo not drawn) [Compound I-131]: the Ki on PKA is below 1 µM; on AKT-3, below 1 µM; on PDK-1 it was above 3 µM.

With `Cc1n[nH]c2ccc(NC(=O)[C@@H](CCN)c3cccc(Cl)c3F)cc12` [Compound I-126], the Ki on PKA, on AKT-3 and on PDK-1 was below 1 µM throughout.

As to `CC(=O)Nc1n[nH]c2ccc(NC(=O)C(CCN)c3ccc(Cl)c(Cl)c3)cc12` (stereo not drawn) [Compound I-140], the Ki at PKA was below 1 µM; on AKT-3, below 1 µM; on PDK-1, 1 to 3 µM.

As to `Cc1n[nH]c2ccc(NC(=O)C(CCN)c3cccc(Cl)c3Cl)cc12` (stereo not drawn) [Compound I-120], the Ki at PKA, on AKT-3 and on PDK-1 was below 1 µM throughout.

Regarding `Cc1cc(NC(=O)C(CCN)c2ccc(Cl)c(Cl)c2)cc2cn[nH]c12` (stereo not drawn) [Compound I-147], the Ki is below 1 µM on PKA, below 1 µM at AKT-3 and 1 to 3 µM at PDK-1.

In the case of `NCCC(C(=O)Nc1ccc2[nH]nc(NC(=O)c3ccccn3)c2c1)c1ccc(Cl)c(Cl)c1` (stereo not drawn) [Compound I-195], the Ki at PKA, on AKT-3 and on PDK-1 was below 1 µM each time.

Consider `NCCC(C(=O)Nc1ccc2[nH]nc(NCc3ccccc3)c2c1)c1ccc(Cl)c(Cl)c1` (stereo not drawn) [Compound I-158], for which the figures for the Ki at PKA, at AKT-3 and on PDK-1 were below 1 µM, 1 to 10 µM and 1 to 3 µM, respectively.

With `NCCC(C(=O)Nc1ccc2[nH]nc(NC(=O)c3ccccc3)c2c1)c1ccc(Cl)c(Cl)c1` (stereo not drawn) [Compound I-141], the Ki at PKA, on AKT-3 and on PDK-1 was below 1 µM throughout.

Consider `CCc1ccc(C(=O)Nc2n[nH]c3ccc(NC(=O)C(CCN)c4ccc(Cl)c(Cl)c4)cc23)cc1` (stereo not drawn) [Compound I-187], for which the Ki on PKA was below 1 µM; at AKT-3, below 1 µM; on PDK-1, 1 to 3 µM.

Regarding `NCC(C(=O)Nc1ccc2[nH]ncc2c1)c1ccc(Cl)cc1` (stereo not drawn) [Compound I-242], the Ki on PKA, at AKT-3 and on PDK-1 was below 1 µM in each case.

Turning to `NCCC(C(=O)Nc1ccc2[nH]nc(NC(=O)c3cccnc3)c2c1)c1ccc(Cl)c(Cl)c1` (stereo not drawn) [Compound I-194], the Ki on PKA, at AKT-3 and on PDK-1 was below 1 µM throughout.

As for `NCCC(C(=O)Nc1ccc2[nH]nc(-c3ccc(-c4ccccc4)cc3)c2c1)c1ccccc1` (stereo not drawn) [Compound I-236], the figures for the Ki on PKA, at AKT-3 and on PDK-1 were below 1 µM, 1 to 10 µM and below 1 µM, respectively.

As to `C#Cc1n[nH]c2ccc(NC(=O)C(CCN)c3ccc(Cl)c(Cl)c3)cc12` (stereo not drawn) [Compound I-124], the Ki on PKA was below 1 µM; at AKT-3 it was below 1 µM; at PDK-1, 1 to 3 µM.

As to `NCCCC(C(=O)Nc1ccc2[nH]ncc2c1)c1ccc(Cl)c(Cl)c1` (stereo not drawn) [Compound I-155], the Ki is below 1 µM on PKA, below 1 µM on AKT-3 and above 3 µM at PDK-1.

`O=C(Nc1ccc2[nH]ncc2c1)C1(c2ccccc2)CCNCC1` [Compound I-156]: the Ki on PKA is below 1 µM; at AKT-3, 1 to 10 µM; on PDK-1 it was above 3 µM.

`NCCC(C(=O)Nc1ccc2[nH]ncc2c1)c1cccc(Cl)c1` (stereo not drawn) [Compound I-100]: the Ki on PKA, on AKT-3 and at PDK-1 was below 1 µM each time.

Consider `NCCC(C(=O)Nc1ccc2[nH]nc(NC(=O)c3cccc(CN)c3)c2c1)c1ccc(Cl)c(Cl)c1` (stereo not drawn) [Compound I-197], for which the Ki on PKA, at AKT-3 and on PDK-1 was below 1 µM throughout.

`NCC[C@H](C(=O)Nc1ccc2[nH]nc(-c3ccccc3)c2c1)c1ccccc1` [Compound I-1053]: the inhibitory constant (Ki) was 1 to 5 µM at PKA, 10 to 20 µM on AKT-3 and below 1 µM at PDK-1.

Regarding `NCCC(C(=O)Nc1ccc2[nH]nc(Br)c2c1)c1ccc(Cl)c(Cl)c1` (stereo not drawn) [Compound I-122], the results for the Ki at PKA, at AKT-3 and at PDK-1 were below 1 µM, below 1 µM and 1 to 3 µM, respectively.

In the case of `NCCC(C(=O)Nc1ccc2[nH]nc(NC(=O)c3cccc(C(F)(F)F)c3)c2c1)c1ccc(Cl)c(Cl)c1` (stereo not drawn) [Compound I-200], the Ki at PKA was below 1 µM; at AKT-3 it was below 1 µM; on PDK-1, above 3 µM.

Regarding `CCCc1ccc(C(=O)Nc2n[nH]c3ccc(NC(=O)C(CCN)c4ccc(Cl)c(Cl)c4)cc23)cc1` (stereo not drawn) [Compound I-188], the Ki at PKA was below 1 µM; on AKT-3 it was below 1 µM; on PDK-1, 1 to 3 µM.

As to `Cc1n[nH]c2ccc(NC(=O)[C@H](CCN)c3cccc(Cl)c3F)cc12` [Compound I-125], the Ki on PKA, on AKT-3 and on PDK-1 was below 1 µM in each case.

Turning to `NCCC(C(=O)Nc1ccc2[nH]ncc2c1)c1cccc(OCc2ccccc2)c1` (stereo not drawn) [Compound I-1006], the Ki on PKA, on AKT-3 and at PDK-1 was below 1 µM throughout.

Turning to `CCc1n[nH]c2ccc(NC(=O)C(CCN)c3ccc(Cl)c(Cl)c3)cc12` (stereo not drawn) [Compound I-118], the figures for the Ki at PKA, on AKT-3 and on PDK-1 were below 1 µM, below 1 µM and 1 to 3 µM, respectively.

As to `NCCC(C(=O)Nc1ccc2[nH]nc(NC(=O)c3ccc(Cl)c(Cl)c3)c2c1)c1ccc(Cl)c(Cl)c1` (stereo not drawn) [Compound I-183], the Ki is below 1 µM at PKA, below 1 µM at AKT-3 and above 3 µM at PDK-1.

With `COc1ccccc1C(CCN)C(=O)Nc1ccc2[nH]ncc2c1` (stereo not drawn) [Compound I-113], the values for the Ki on PKA, at AKT-3 and at PDK-1 were below 1 µM, 1 to 10 µM and above 3 µM, respectively.

`Cc1n[nH]c2ccc(NC(=O)C(CCN)c3ccc(Cl)c(Cl)c3F)cc12` (stereo not drawn) [Compound I-136]: the Ki at PKA, on AKT-3 and on PDK-1 was below 1 µM throughout.

On to `NCCC(C(=O)Nc1ccc2[nH]nc(NC(=O)c3cccs3)c2c1)c1ccccc1` (stereo not drawn) [Compound I-1043], for which the Ki on PKA, at AKT-3 and at PDK-1 was below 1 µM in each case.

For `NCCC(C(=O)Nc1ccc2[nH]nc(NC(=O)c3cccs3)c2c1)c1ccc(Cl)c(Cl)c1` (stereo not drawn) [Compound I-169], the Ki at PKA, at AKT-3 and at PDK-1 was below 1 µM throughout.

For the compound `NCCC(C(=O)Nc1ccc2[nH]nc(NC(=O)c3ccc(CN)cc3)c2c1)c1ccc(Cl)c(Cl)c1` (stereo not drawn) [Compound I-198], the Ki at PKA, on AKT-3 and at PDK-1 was below 1 µM in each case.

With `CNc1ccc(C(=O)Nc2n[nH]c3ccc(NC(=O)C(CCN)c4ccc(Cl)c(Cl)c4)cc23)cc1` (stereo not drawn) [Compound I-206], the Ki at PKA, on AKT-3 and at PDK-1 was below 1 µM in each case.

As for `NCCC(C(=O)Nc1ccc2[nH]nc(-c3ccccc3)c2c1)c1ccccc1` (stereo not drawn) [Compound I-1028], the inhibition constant Ki at PKA is below 1 µM; on AKT-3, 1 to 10 µM; on PDK-1, below 1 µM.

On to `NCCC(C(=O)Nc1ccc2[nH]nc(NC(=O)c3cc(C(F)(F)F)cc(C(F)(F)F)c3)c2c1)c1ccc(Cl)c(Cl)c1` (stereo not drawn) [Compound I-202], for which the Ki is 1 to 5 µM on PKA, below 1 µM on AKT-3 and above 3 µM at PDK-1.

As to `NCCC(C(=O)Nc1ccc2[nH]nc(NC(=O)c3cccc(Cl)c3)c2c1)c1ccc(Cl)c(Cl)c1` (stereo not drawn) [Compound I-160], the Ki was below 1 µM on PKA, below 1 µM at AKT-3 and 1 to 3 µM at PDK-1.

For `NCCC(C(=O)Nc1ccc2[nH]nc(Cl)c2c1)c1ccc(Cl)c(Cl)c1` (stereo not drawn) [Compound I-121], the Ki at PKA, at AKT-3 and on PDK-1 was below 1 µM each time.

On to `NCCC(C(=O)Nc1ccc2[nH]nc(Nc3cccc(Cl)c3)c2c1)c1ccc(Cl)c(Cl)c1` (stereo not drawn) [Compound I-162], for which the Ki on PKA, on AKT-3 and on PDK-1 was below 1 µM each time.

For `COc1ccc(C(=O)Nc2n[nH]c3ccc(NC(=O)C(CCN)c4ccc(Cl)c(Cl)c4)cc23)cc1` (stereo not drawn) [Compound I-168], the Ki at PKA, at AKT-3 and on PDK-1 was below 1 µM each time.

For the compound `NCCC(C(=O)Nc1ccc2[nH]ncc2c1)c1cccc(Cl)c1Cl` (stereo not drawn) [Compound I-106], the Ki on PKA, at AKT-3 and on PDK-1 was below 1 µM throughout.

Consider `N#Cc1cccc(Nc2n[nH]c3ccc(NC(=O)C(CN)c4ccc(Cl)c(Cl)c4)cc23)c1` (stereo not drawn) [Compound I-232], for which the values for the Ki at PKA, on AKT-3 and at PDK-1 were below 1 µM, below 1 µM and above 3 µM, respectively.

The record behind these values is US7041687B2, “Indazole compounds useful as protein kinase inhibitors” (Vertex Pharmaceuticals Incorporated, priority 2002, dated 2006).
